Reference: ChEMBL document CHEMBL6103613 (J Med Chem, 2025)
≈ marks a conversion by molar mass, not a printed value. Calls of active or inactive are those of the source. No cut-off for these calls is given here.

Legend:
Staphylococcus aureus [1] = assay: Antimicrobial activity against Staphylococcus aureus ATCC 25923 assessed as inhibition of visible bacterial growth incubated for 18 hrs by CLSI based analysis; format: functional
Staphylococcus aureus [2] = assay: Antimicrobial activity against methicillin-resistant Staphylococcus aureus ATCC 43300 assessed as inhibition of visible bacterial growth incubated for 18 hrs by CLSI based analysis; format: functional
Staphylococcus aureus [3] = assay: Antimicrobial activity against methicillin-resistant Staphylococcus aureus clinical isolate 2 assessed as inhibition of visible bacterial growth incubated for 18 hrs by CLSI based analysis; format: functional
Staphylococcus aureus [4] = assay: Antimicrobial activity against methicillin-resistant Staphylococcus aureus clinical isolate 4 assessed as inhibition of visible bacterial growth incubated for 18 hrs by CLSI based analysis; format: functional
Enterococcus faecalis = assay: Antimicrobial activity against Enterococcus faecalis ATCC 19433 assessed as inhibition of visible bacterial growth incubated for 18 hrs by CLSI based analysis; format: functional
Escherichia coli = assay: Antimicrobial activity against Escherichia coli assessed as inhibition of visible bacterial growth incubated for 18 hrs by CLSI based analysis; format: functional
[5] = Hemolytic activity against mouse Red blood cells at 100 microg/ml incubated for 1 hr relative to control; format: toxicity, cell-based, Erythrocyte; settings: at 100 µg/mL, read-out: Activity
Candida albicans = assay: Antifungal activity against Candida albicans assessed as reduction in fungal growth incubated for 18 hrs by CLSI based analysis; format: functional
RAW264.7 = assay: Cytotoxicity against mouse RAW264.7 cells assessed as cell viability at 6.25 to 100 microg/ml incubated for 24 hrs by MTT assay; format: toxicity, cell-based; settings: raw264.7, 24 h
Staphylococcus aureus [6] = assay: Inhibition of biofilm formation in Staphylococcus aureus at 1 to 16 times MIC by crystal violet staining based analysis; format: functional
Staphylococcus aureus [7] = assay: Inhibition of biofilm formation in Staphylococcus aureus at 1 to 16 times MIC by hochest33342/PI staining based analysis; format: functional
Staphylococcus aureus [8] = assay: Antibiofilm activity in Staphylococcus aureus assessed as biofilm eradication at 4 times MIC relative to control; format: functional
Cell membrane [9] = assay: Induction of cell membrane depolarization in Staphylococcus aureus assessed as increase in fluorescence intensity at 1 to 8 times MIC by DiOC2 (3) dye based assay; format: subcellular
Staphylococcus aureus [10] = assay: Antimicrobial activity against Staphylococcus aureus ATCC 25923 incubated for 1 hr in presence of PG; format: functional
Staphylococcus aureus [11] = assay: Antimicrobial activity against Staphylococcus aureus ATCC 25923 incubated for 1 hr in presence of PE; format: functional
Staphylococcus aureus [12] = assay: Antimicrobial activity against Staphylococcus aureus ATCC 25923 incubated for 1 hr in presence of PGN; format: functional
Peptidoglycan [13] = assay: Binding affinity to Staphylococcus aureus peptidoglycan assessed as dissociation constant by ITC analysis
Peptidoglycan [14] = assay: Binding affinity to Staphylococcus aureus peptidoglycan assessed as change in enthalpy by ITC analysis
Peptidoglycan [15] = assay: Binding affinity to Staphylococcus aureus peptidoglycan assessed as change in entropy by ITC analysis
Cell membrane [16] = assay: Disruption of cell membrane integrity in Staphylococcus aureus at 4 times of MIC incubated for 1 mins by Propidium iodide staining based analysis; format: subcellular
Cell membrane [17] = assay: Disruption of cell membrane integrity in Staphylococcus aureus at 4 times of MIC incubated for 30 mins by Propidium iodide staining based analysis; format: subcellular
Cell membrane [18] = assay: Disruption of cell membrane integrity in Staphylococcus aureus at 4 times of MIC incubated upto 20 mins by fluorescence microscopic analysis; format: subcellular
Staphylococcus aureus [19] = assay: Induction of ROS production in Staphylococcus aureus assessed as increase in fluorescence intensity at 4 times MIC by DCFH-DA probe based assay; format: functional, organism-based
Staphylococcus aureus [20] = assay: Upregulation of superoxide dismutase expression in Staphylococcus aureus at 12.5 microg/ml incubated for 3 hrs by RNA sequencing analysis; format: functional; settings: dose 12.5 µg/ml
Staphylococcus aureus [21] = assay: Upregulation of Mnh1 expression in Staphylococcus aureus at 12.5 microg/ml incubated for 3 hrs by RNA sequencing analysis; format: functional; settings: dose 12.5 µg/ml
Staphylococcus aureus [22] = assay: Upregulation of LiaF expression in Staphylococcus aureus at 12.5 microg/ml incubated for 3 hrs by RNA sequencing analysis; format: functional; settings: dose 12.5 µg/ml
Staphylococcus aureus [23] = assay: Upregulation of SgtB expression in Staphylococcus aureus at 12.5 microg/ml incubated for 3 hrs by RNA sequencing analysis; format: functional; settings: dose 12.5 µg/ml
Staphylococcus aureus [24] = assay: Upregulation of dltB expression in Staphylococcus aureus at 12.5 microg/ml incubated for 3 hrs by RNA sequencing analysis; format: functional; settings: dose 12.5 µg/ml
Staphylococcus aureus [25] = assay: Antimicrobial activity against Staphylococcus aureus at 100 degreeC incubated for 0.5 hrs; format: functional, organism-based
Staphylococcus aureus [26] = assay: Antimicrobial activity against Staphylococcus aureus incubated for 0.5 hrs in presence of Mg+; format: functional, organism-based
Staphylococcus aureus [27] = assay: Antimicrobial activity against Staphylococcus aureus incubated for 0.5 hrs in presence of Fe2+; format: functional, organism-based
Staphylococcus aureus [28] = assay: Antimicrobial activity against Staphylococcus aureus incubated for 0.5 hrs in presence of Fe3+; format: functional, organism-based
[29] = Stability of compound in mouse serum measured after 24 hrs; format: ADME, cell-free
[30] = Toxicity in mouse assessed as survival rate at 50 mg/kg, ip measured for 7 days; format: organism-based; settings: in vivo, time 7 day
[31] = Toxicity in mouse assessed as change in food intake at 50 mg/kg, ip measured for 7 days; format: organism-based; settings: in vivo, 168 h, time 7 day
[32] = Toxicity in mouse assessed as change in bowel movement intake at 50 mg/kg, ip measured for 7 days; format: organism-based; settings: in vivo, 168 h, time 7 day
[33] = Toxicity in mouse assessed as change in body weight gain at 50 mg/kg, ip measured for 7 days; format: organism-based; settings: in vivo, 168 h, time 7 day
[34] = Toxicity in mouse assessed as heart damage at 50 mg/kg, ip measured for 7 days by H and E staining based analysis; format: organism-based; settings: in vivo, 168 h, time 7 day
[35] = Toxicity in mouse assessed as lung damage at 50 mg/kg, ip measured for 7 days by H and E staining based analysis; format: organism-based; settings: in vivo, 168 h, time 7 day
[36] = Toxicity in mouse assessed as kidney damage at 50 mg/kg, ip measured for 7 days by H and E staining based analysis; format: organism-based; settings: in vivo, 168 h, time 7 day
Staphylococcus aureus [37] = assay: Antibacterial activity against methicillin-resistant Staphylococcus aureus infected in kunming mouse keratitis model measured upto 24 hrs; format: functional, organism-based
[38] = Toxicity in kunming mouse assessed as effect on lung morphology at 5 mg/kg, ip; format: organism-based; settings: in vivo
Staphylococcus aureus [39] = assay: Antibacterial activity against methicillin-resistant Staphylococcus aureus infected in kunming mouse pneumonia model assessed as reduction in colony count in lung at 5 mg/kg, ip measured upto 8 days; format: functional, organism-based; settings: time <= 8.0 day
Staphylococcus aureus [40] = assay: Antibacterial activity against methicillin-resistant Staphylococcus aureus infected in kunming mouse pneumonia model assessed as decrease in IL-6 expression in lung at 5 mg/kg, ip measured upto 8 days; format: functional, organism-based; settings: time <= 8.0 day
Staphylococcus aureus [41] = assay: Antibacterial activity against methicillin-resistant Staphylococcus aureus infected in kunming mouse pneumonia model assessed as decrease in IL-10 expression in lung at 5 mg/kg, ip measured upto 8 days; format: functional, organism-based; settings: time <= 8.0 day
Staphylococcus aureus [42] = assay: Antibacterial activity against methicillin-resistant Staphylococcus aureus infected in kunming mouse pneumonia model assessed as decrease in TNF-alpha expression in lung at 5 mg/kg, ip measured upto 8 days; format: functional, organism-based; settings: time <= 8.0 day
Staphylococcus aureus [43] = assay: Antibacterial activity against methicillin-resistant Staphylococcus aureus infected in kunming mouse peritonitis model assessed as reduction in bacterial colonies in kidney at 5 mg/kg, ip measured upto 8 days; format: functional, organism-based; settings: time <= 8.0 day

Work on `CC(C)[C@@H]1NC(=O)[C@@H](C(C)C)NC(=O)[C@H](C(C)C)NC(=O)[C@@H](CCCCN)NC(=O)[C@H](Cc2c(C(c3ccccc3)(c3ccccc3)c3ccccc3)[nH]c3ccccc23)NC(=O)[C@@H](C(C)C)NC(=O)[C@@H]2CSC1N2` yielded an MIC (Staphylococcus aureus [1]) of 6.25 mg/L (≈ 6.01 µM), an MIC (Staphylococcus aureus [2]) of 6.25 mg/L (≈ 6.01 µM) and an MIC (Staphylococcus aureus [3]) of 6.25 mg/L (≈ 6.01 µM). For the same compound, the MIC (Staphylococcus aureus [4]) was 6.25 mg/L (≈ 6.01 µM), the MIC (Enterococcus faecalis) was 12.5 mg/L (≈ 12 µM) and the MIC (Escherichia coli) was 3.13 mg/L (≈ 3.01 µM). The hemolysis at 1 h, 100 microg/ml [5] was less than 5%, the MIC (Candida albicans) was 3.13 mg/L (≈ 3.01 µM) and the Activity (RAW264.7) was “Non-toxic”. For the same compound, the “inhibition (INH)” value (Staphylococcus aureus [6]) was roughly 100%, the “inhibition (INH)” value (Staphylococcus aureus [7]) was roughly 100% and the Activity (Staphylococcus aureus [8]) was 40%. For the same compound, the Activity (Cell membrane [9]) was “Dose-dependent-effect”, the MIC (Staphylococcus aureus [10]) was greater than 50 mg/L and the MIC (Staphylococcus aureus [11]) was greater than 50 mg/L. It also gave an MIC (Staphylococcus aureus [12]) greater than 50 mg/L, a Kd (Peptidoglycan [13]) of 0.615 µM and a deltaH (Peptidoglycan [14]) of 3.87 kJ/mol. For the same compound, the TdeltaS (Peptidoglycan [15]) was 31.6 kJ/mol, the Activity (Cell membrane [16]) was 26.2% and the Activity (Cell membrane [17]) was 46.7%. For the same compound, the Activity (Cell membrane [18]) was “Active”, the Activity (Staphylococcus aureus [19]) was “Active” and the Activity (Staphylococcus aureus [20]) was “Active”. The Activity (Staphylococcus aureus [21]) was “Active”, the Activity (Staphylococcus aureus [22]) was “Active” and the Activity (Staphylococcus aureus [23]) was “Active”. The Activity (Staphylococcus aureus [24]) was “Active”, the Activity (Staphylococcus aureus [25]) was “Active” and the Activity (Staphylococcus aureus [26]) was “Active”. The Activity (Staphylococcus aureus [27]) was “Active”, the Activity (Staphylococcus aureus [28]) was “Active” and the Stability [29] was “Stable”. The survival at 168 h [30] was 100%, the Activity [31] was “Non-toxic” and the Activity [32] was “Non-toxic”. For the same compound, the Activity [33] was “Non-toxic”, the Activity [34] was “Non-toxic” and the Activity [35] was “Non-toxic”. The Activity [36] was “Non-toxic”, the Activity (Staphylococcus aureus [37]) was “Active” and the Activity [38] was “Non-toxic”. For the same compound, the Activity (Staphylococcus aureus [39]) was “Active”, the Activity (Staphylococcus aureus [40]) was “Active” and the Activity (Staphylococcus aureus [41]) was “Active”. The Activity (Staphylococcus aureus [42]) was “Active” and the Activity (Staphylococcus aureus [43]) was “Active”.
